Measured values: patent US8889378B2, “Cytochrome C synthesis inhibitors” (priority 2006, dated 2014)

Tests used:
[1] = system: system II cytochrome c biogenesis (H. pylori CcsBA); experiment: Metalloprotoporphyrin IX addition, E. coli Δccm with pRGK348 (system II-chuA) and pRGK332; type: cell-based; settings: for level of heme on c4:6×His: system II, up to 100 μM
Protocol: (§1) Overnight cultures of an E. coli Δccm strain (or E. coli ΔccmΔhemA) harboring either pRGK333 (system I) or pRGK348 (system II-chuA), pRGK332 (cytochrome c4:6×His), and pHPEX2 (Varnado and Goodwin, 2004) were diluted into fresh LB broth (containing the appropriate antibiotics and 8 μM hemin for the E. coli ΔccmΔhemA strain) and incubated with aeration at 37° C. until the OD600 was approximately 0.5. […] Arabinose (0.2%) was added after one hour and incubation continued for an additional three hours. Cells were harvested and soluble protein was extracted using B-PER (Feissner et al., 2006). Cytochrome c4:6×His was purified from 300 μg of total protein and 20 μL was subjected to SDS-PAGE and transferred to nitrocellulose. Prior to heme stain and c4 immunoblot, the nitrocellulose blots were screened for fluorescence on an LAS-1000plus Luminescent Image Analyzer CCD camera system (Fujifilm; Tokyo, Japan).
Heme stains were performed as described (Feissner et al., 2003) using SuperSignal Femto chemiluminescent substrate (Pierce). Heme stain quantitation used LOLITA II (Low Light Test Array; raytestUSA; Wilmington, N.C.) for standardization of light intensity detection on an LAS1000plus Luminescent Image Analyzer CCD camera system. For Western blotting, extracts were first separated by 12% or 15% SDS-PAGE and electroblotted onto Hybond-C nitrocellulose membranes (Amersham). […] Chemiluminescence from heme stains and Western blots were detected using an LAS-1000plus Luminescent Image Analyzer CCD camera system (Fujifilm). Protein concentrations were determined using the BCA assay (Pierce) using BSA as a standard. […] Protein concentrations were determined with the BCA assay kit (Pierce) using BSA as a standard.
ZnPPIX (and SnPPIX), when present with 8 μM heme, may compete with heme for ChuA-dependent transport into the cell. […] When E. coli Δccm with pRGK333 (system I), pRGK332, and pHPEX2 were treated with ZnPPIX, a decrease in holocytochrome c4:6×His was detected as the concentration of ZnPPIX was increased (FIG. 16A left panel, lanes 1-5). […]

[2] = system: system I cytochrome c biogenesis; experiment: Metalloprotoporphyrin IX addition, E. coli ΔccmΔhemA with pRGK333 (system I), pRGK332, pHPEX2 and 8 μM heme; type: cell-based; settings: for effect on the level of detectable heme on c4:6×His (holocytochrome c4): metalloporphyrin 8, 12.5 or 25 μM with 8 μM heme
Protocol: Overnight cultures of an E. coli Δccm strain (or E. coli ΔccmΔhemA) harboring either pRGK333 (system I) or pRGK348 (system II-chuA), pRGK332 (cytochrome c4:6×His), and pHPEX2 (Varnado and Goodwin, 2004) were diluted into fresh LB broth (containing the appropriate antibiotics and 8 μM hemin for the E. coli ΔccmΔhemA strain) and incubated with aeration at 37° C. until the OD600 was approximately 0.5. The mid-log phase cultures were divided into 5 mL aliquots to which IPTG (1 mM) and a metalloprotoporphyrin IX (Zn (II), Sn (IV), Co (III), or Mn (III); 0 μM to 25 μM) were added. Arabinose (0.2%) was added after one hour and incubation continued for an additional three hours. Cells were harvested and soluble protein was extracted using B-PER (Feissner et al., 2006). Cytochrome c4:6×His was purified from 300 μg of total protein and 20 μL was subjected to SDS-PAGE and transferred to nitrocellulose. Prior to heme stain and c4 immunoblot, the nitrocellulose blots were screened for fluorescence on an LAS-1000plus Luminescent Image Analyzer CCD camera system (Fujifilm; Tokyo, Japan).
(§2) Heme stains were performed as described (Feissner et al., 2003) using SuperSignal Femto chemiluminescent substrate (Pierce). Heme stain quantitation used LOLITA II (Low Light Test Array; raytestUSA; Wilmington, N.C.) for standardization of light intensity detection on an LAS1000plus Luminescent Image Analyzer CCD camera system. For Western blotting, extracts were first separated by 12% or 15% SDS-PAGE and electroblotted onto Hybond-C nitrocellulose membranes (Amersham). Protein A peroxidase (Sigma-Aldrich) was used as the secondary label. Detection used the SuperSignal West Femto ECL detection system (Pierce). Chemiluminescence from heme stains and Western blots were detected using an LAS-1000plus Luminescent Image Analyzer CCD camera system (Fujifilm). Protein concentrations were determined using the BCA assay (Pierce) using BSA as a standard. The reduced (10 mM sodium dithionite) and oxidized (10 mM ammonia persulphate) absorption spectra were obtained as previously described (Goldman et al., 1996) using Ni^2+ affinity-purified holocytochrome c4:His. Protein concentrations were determined with the BCA assay kit (Pierce) using BSA as a standard.
The chemical properties of iron may not be uniquely critical for its attachment to apocytochrome c during cytochromes c biogenesis. To test whether any of the cytochromes c biogenesis systems can incorporate other metal porphyrins, four metalloporphyrins were chosen to screen for incorporation into the into the CXXCH motif of a c-type cytochrome: ZnPPIX, SnPPIX, MnPPIX, and CoPPIX. These four metalloporphyrins were tested to determine whether heme can be replaced by other metalloporphyrins in the c-type cytochrome (c4:6×His) reporter. Cultures of E. coli ΔccmΔhemA containing pRGK333 (system I), pRGK332 (c4:6×His), and pHPEX2 were grown overnight in 300 μM ALA and subcultured into fresh LB medium containing 8 μM heme and grown to an OD600 of 0.5. IPTG and metalloporphyrin (8 μM, 12.5 μM, or 25 μM) were then added and growth continued for one hour. Arabinose was added to 0.2% to induce the synthesis of the c4:6×His and growth continued for three more hours before cells were harvested. […] As expected, heme was detected on c4:6×His when either 8 μM or 25 μM heme alone was added (FIG. 15 lanes 1 and 2, respectively).

[3] = system: system I cytochrome c biogenesis; experiment: Metalloprotoporphyrin IX addition, E. coli Δccm with pRGK333 (system I), pRGK332 and pHPEX2; type: cell-based; settings: for level of heme on c4:6×His: system I, up to 100 μM
Protocol: as §1, §2
ZnPPIX (and SnPPIX), when present with 8 μM heme, may compete with heme for ChuA-dependent transport into the cell. Using an E. coli Δccm strain (RK103) that has endogenous heme production, it was tested whether ZnPPIX (and SnPPIX) caused a reduction in holocytochrome c4 levels detectable by heme stain. When E. coli Δccm with pRGK333 (system I), pRGK332, and pHPEX2 were treated with ZnPPIX, a decrease in holocytochrome c4:6×His was detected as the concentration of ZnPPIX was increased (FIG. 16A left panel, lanes 1-5).
The three other metal protoporphyrins, SnPPIX, MnPPIX, and CoPPIX, were also tested in the E. coli Δccm background with system I or II. […]

E. coli Δccm = experiment: Growth of E. coli Δccm with pRGK333, pRGK332 and pHPEX2 in the presence of ZnPPIX; type: cell-based; settings: 12.5 μM or 25 μM; compared to the same strain without ZnPPIX
Protocol: FIG. 21. Growth of E. coli Dccm containing pRGK333, pRGK332, and HPEX2 in the presence of ZnPPIX. Overnight cultures of E. coli Dccm containing pRGK333 (system I), pRGK332 (cytochrome c4:6×His), and pHPEX2 were diluted into fresh LB broth containing the indicated ZnPPIX ([…]) concentrations for growth measurements.
To rule out that ZnPPIX is not affecting some basic cellular processes, growth studies were performed with E. coli Δccm harboring pRGK333 (system I), pRGK332 (c4:6×His), and pHPEX2.

[4] = system: system I cytochrome c biogenesis with arabinose-inducible CcmE; experiment: NMPP inhibition, RK103 with pRGK345 (system I, ccmE deletion) and pRGK349 (arabinose-inducible c4:His and CcmE); type: cell-based, E. coli; settings: 100 μM NMPP; compared with pRGK333 and constitutively produced CcmE
Protocol: (§3) Five milliliter cultures of E. coli Δccm harboring either the pRGK333 or pRGK334 plasmid and pRGK332, or pRGK345 and pRGK349, were inoculated with 300 μl of overnight culture grown for 3 h to mid-exponential phase (A600=0.6). At this point, IPTG and NMPP (Frontier Scientific) were added to each culture; IPTG was added (1 mM) to induce the synthesis of system I (pRGK333), system II (pRGK334), or ΔccmE (pRGK345) while NMPP (10 mM stock in 50% DMSO) was added to a final concentration of 0-100 μM. After addition of IPTG and NMPP, cultures were grown an additional hour before induction of cytochrome c4:His (and ccmE from pRGK349) with 0.2% arabinose. Cells were grown for an additional 3 h and then harvested by centrifugation. […]
(§4) Heme stains were performed as described (Feissner et al., 2003) using SuperSignal Femto chemiluminescent substrate (Pierce). Heme stain quantitation used LOLITA II (Low Light Test Array; raytestUSA; Wilmington, N.C.) for standardization of light intensity detection on an LAS1000plus Luminescent Image Analyzer CCD camera system. […] Chemiluminescence from heme stains and Western blots were detected using an LAS-1000plus Luminescent Image Analyzer CCD camera system (Fujifilm). Protein concentrations were determined using the BCA assay (Pierce) using BSA as a standard. […] Protein concentrations were determined with the BCA assay kit (Pierce) using BSA as a standard. […]

[5] = system: system II cytochrome c biogenesis (H. pylori CcsBA); experiment: NMPP inhibition of holocytochrome c4:His synthesis, RK103 with pRGK334 (system II) and pRGK332; type: cell-based, E. coli; settings: all trials; heme stain
Protocol: as §3, §4

[6] = system: system I cytochrome c biogenesis; experiment: NMPP-ZnPPIX combined inhibition, E. coli Δccm with pRGK333 (system I), pRGK332 and pHPEX2; type: cell-based
Protocol: 100 mL cultures of E. coli Δccm containing pRGK333 (system I), pRGK332 (c4:6×His), and pHPEX2 (Varnado and Goodwin, 2004) were inoculated with 1% (v/v) from an overnight culture and grown with aeration at 37° C. to an OD600 of approximately 0.5. The mid-log phase cultures were divided into 5 mL aliquots to which IPTG (1 mM, to induce the synthesis of the system I proteins and the chuA gene) and NMPP (0 μM to 100 μM) were added. After one hour 0.2% arabinose was added (to induce the synthesis of the B. pertussis c4:6×His) and cultures were incubated an additional three hours. […]
as §4

`C=Cc1c(C)c2cc3[nH]c(cc4nc(cc5nc(cc1[nH]2)C(C)=C5CCC(=O)[O-])C(CCC(=O)[O-])=C4C)c(C)c3C=C.[Co+2]` [CoPPIX, cobalt (III) protoporphyrin IX] was tested, and the “level of heme on c4:6×His” value [1] was “no decrease”, the “effect on the level of detectable heme on c4:6×His (holocytochrome c4)” value (“effect on the level of detectable heme” below) [2] was “neither CoPPIX nor MnPPIX had any affect” and the “level of heme on c4:6×His” value [3] was “no decrease”.
For `C=CC1=C(C)c2cc3[n-]c(cc4[n-]c(cc5nc(cc1n2)C(C)=C5C=C)c(C)c4CCC(=O)[O-])c(CCC(=O)[O-])c3C.[H+].[H+].[Mn+2]` [MnPPIX, manganese (III) protoporphyrin IX], the “level of heme on c4:6×His” value [1] was “no decrease”, the “effect on the level of detectable heme” value [2] was “neither CoPPIX nor MnPPIX had any affect” and the “level of heme on c4:6×His” value [3] was “no decrease”.
With `C=Cc1c2[n-]c(c1C)/C=c1\[n-]/c(c(C)c1C=C)=C\c1[n-]c(c(CCC(=O)O)c1C)C=c1[n-]/c(c(C)c1CCC(=O)O)=C\2.[Sn+4]` [SnPPIX, tin (IV) protoporphyrin IX] the IC50 ([1]; holocytochrome c4:6×His, heme stain, read-out: concentration required for 50% inhibition of system II) was ~18 µM, the “effect on the level of detectable heme” value [2] was “reduced the level of detectable heme” and the IC50 ([3]; holocytochrome c4:6×His, heme stain, read-out: concentration required for 50% inhibition of system I) was ~65 µM.
With `C=CC1=C(C)c2cc3[n-]c(cc4[n-]c(cc5nc(cc1n2)C(C)=C5C=C)c(C)c4CCC(=O)O)c(CCC(=O)O)c3C.[Zn+2]` [ZnPPIX, zinc (II) protoporphyrin IX] the “level of heme on c4:6×His” value ([2]; 25 μM ZnPPIX with 8 μM heme, heme stain) was “nearly undetectable”, the “effect on the level of detectable heme” value [2] was “decreasing amounts of holocytochrome c4” and the “rate or yield of growth” value (E. coli Δccm) was “no decrease in the rate or yield of growth”. For the same molecule, the “holocytochrome c4:6×His produced, % of wild type levels” value ([3]; 8 μM ZnPPIX) was “approximately 20%”.
For N-methylprotoporphyrin [NMPP], the “amount of holocytochrome c4:His” value [4] was “dramatic reduction”, the “NMPP concentration at which holocytochrome c4:His production was completely abolished” value [5] was “less than 20 μM” and the “holocytochrome c4:6×His levels” value ([6]; 60 μM NMPP alone) was “approximately 54%”. The “holocytochrome c4:6×His levels” value ([6]; 100 μM NMPP alone) was “approximately 30%”.
